From patent US9982265B2, “Inhibition of Bruton's tyrosine kinase (Btk) in the lung to treat severe lung inflammation and lung injury” (BOARD OF REGENTS, THE UNIVERSITY OF TEXAS SYSTEM, priority 2014, dated 2018)

Key:
MMP-9 = test: Expression of MMP-9 in alveolar neutrophils of treated ALI mice, laser confocal microscopy; format: in vivo; conditions: LPS/IC ALI; FIGS. 6A and B
Method: Laser Confocal Microscopy: Purified alveolar neutrophils mounted on cytospins were incubated with the following primary antibodies: anti-mouse Btk, anti-mouse MyD88, anti-mouse MMP-9 (Santa Cruz Biotechnology), and anti-mouse pBtk (Invitrogen, Grand Island, N.Y.). Species specific antibodies conjugated with fluorescent dyes were subsequently applied to slides. Lung tissue sections, processed as routinely done in our laboratory (26, 28), were incubated with anti-mouse FcγRIII antibody (R&D Systems, Minneapolis, Minn.), or anti-mouse MMP-9 antibody (Santa Cruz Biotechnology), or with anti-neutrophil (Ly6G1A8) antibody (Bio X Cell, West Lebanon, N.H.) followed by fluorescence dye-conjugated secondary antibodies. Hoechst 33342 (Calbiochem, San Diego, Calif.) was employed to stain nuclei. Laser confocal microscopy was performed using PerkinElmer Ultra VIEW LCI confocal imaging system with Nikon TE2000-S fluorescence microscope and PlanApox60 immersion oil objective (numerical aperture [NA] 1.4) at room temperature. Ultra VIEW Imaging Suite software (version 5.5.0.4) was used for image processing.
Neutrophils are implicated in ALI because of various substances released from granules into the area of inflammation. MMP-9 (gelatinase B) is one of the most extensively studied MMPs in the context of ALI. […]

alveolar neutrophils = test: Uptake of alveolar neutrophils by mouse spleen macrophages (co-culture 1 h); format: cell-based; conditions: neutrophils from treated LPS/IC ALI mice versus ALI; FIG. 5B
Method: Neutrophil Apoptosis/Uptake: Purified alveolar neutrophils were evaluated for the presence of cleaved caspase 3 as done routinely in our laboratory (13). Cells mounted on cytospins were incubated with anti-mouse cleaved caspase 3 antibody (Cell Signaling Technology, Danvers, Mass.), followed by dye-conjugated secondary antibody. Fluorescence intensity of cleaved caspase 3 was analyzed as described above. In addition, alveolar neutrophils were co-cultured with mouse spleen macrophages for 1 h (43, 44), and percentage of phagocytosed neutrophils was calculated. In separate sets of experiments bone marrow neutrophils (BMPMNs) were purified according to the previously published protocol (54) and cultivated for 24 h to induce spontaneous apoptosis. Some cells were cultured in the presence of LPS and anti-KC:KC immune complexes. In other experiments, BMPMNs were treated with siRNA specific for Btk (Santa Cruz Biotechnology) conjugated to F(ab′)2 fragments of the Ly6G1A8 antibody. Similarly conjugated control siRNA (Santa Cruz Biotechnology) or F(ab′)2 fragments of the Ly6G1A8 alone served as controls.
In other experiments, purified alveolar neutrophils were co-cultured with mouse spleen macrophages for 1 h, and the percentage of phagocytosed neutrophils was assessed by counting numbers of neutrophils present inside macrophages. […]

## Cont siRNA: control siRNA #8 (SEQ ID NO:26/27) conjugated to F(ab′)2 fragments of Ly6G1A8 (chain 1 UUCCUCUCCACGCGCAGUACAUUUA; chain 2 AAGGAGAGGUGCGCGUCAUGUAAAU; conjugated to antibody F(ab')2 fragment, attachment not given here; one strand is listed 3' to 5')
MMP-9
  MMP-9 expression in lung neutrophils: detectable
Alveolar neutrophils
  uptake (phagocytosis) of apoptotic alveolar neutrophils by macrophages: no effect
